The nature of this series: activity coefficient (dimensionless); of the first substance listed, at infinite dilution; xn = mol fraction of the nth substance listed. The following applies: Liquid, Chromatography, x1 = 0.

Numbers after ± are expanded uncertainties.

Consider `CCC(C)=O` [butanone] + CCCCCCCCn1cc[n+](COCCC)c1C.N#C[N-]C#N, for which the activity coefficient worked out at 0.7 ± 0.05 (323.15 K), 0.64 ± 0.04 (333.15 K) and 0.55 ± 0.04 (343.15 K).

In the case of `C1CCCCC1` [cyclohexane] + CCCOC[n+]1ccn(C)c1.O=S(=O)([N-]S(=O)(=O)C(F)(F)F)C(F)(F)F, the activity coefficient came to 9.55 ± 0.65 (323.15 K), 9.25 ± 0.63 (333.15 K) and 9.07 ± 0.62 (343.15 K).

`CCCCCCCCCCC` [undecane] + CCCCCCCCn1cc[n+](COCCC)c1C.O=S(=O)([N-]S(=O)(=O)C(F)(F)F)C(F)(F)F: the activity coefficient came to 11.2 ± 0.76 (323.15 K), 10.5 ± 0.72 (333.15 K) and 9.8 ± 0.67 (343.15 K).

Take `C1CCCCCC1` [cycloheptane] + CCCCCCCCn1cc[n+](COCCC)c1C.N#C[N-]C#N: the activity coefficient (323.15 K) was found to be 15.7 ± 1.1.

In the case of `C=CCCCC` [hex-1-ene] + CCCOC[n+]1ccn(Cc2ccccc2)c1.O=S(=O)([N-]S(=O)(=O)C(F)(F)F)C(F)(F)F, the activity coefficient runs as follows: (323.15 K) 5.09 ± 0.35; (333.15 K) 4.32 ± 0.29; (343.15 K) 4.05 ± 0.28.

`Cc1ccc(C)cc1` [1,4-dimethylbenzene] + CCCOC[n+]1ccc(N(C)C)cc1.O=S(=O)([N-]S(=O)(=O)C(F)(F)F)C(F)(F)F: the activity coefficient was found to be 1.38 ± 0.09 (323.15 K), 1.45 ± 0.1 (333.15 K) and 1.45 ± 0.1 (343.15 K).

`CCC(C)=O` [butanone] + CCCCCCCCn1cc[n+](COCCC)c1C.O=S(=O)([N-]S(=O)(=O)C(F)(F)F)C(F)(F)F: the activity coefficient by setting is: (323.15 K) 0.36 ± 0.03; (333.15 K) 0.33 ± 0.03; (343.15 K) 0.3 ± 0.03.

For the compound `Cc1ccccc1` [toluene] + CCCCCCCCn1cc[n+](COCCCOC[n+]2ccn(CCCCCCCC)c2C)c1C.N#C[N-]C#N.N#C[N-]C#N, the activity coefficient by setting is: (323.15 K) 0.94 ± 0.06; (333.15 K) 0.95 ± 0.06; (343.15 K) 0.97 ± 0.06.

Regarding `CCCCCCCCCCC` [undecane] + CCCCCCCCn1cc[n+](COCCCOC[n+]2ccn(CCCCCCCC)c2C)c1C.N#C[N-]C#N.N#C[N-]C#N, the activity coefficient was 24.4 ± 1.7 (323.15 K), 23.4 ± 1.6 (333.15 K) and 22.4 ± 1.5 (343.15 K).

With `CC#N` [acetonitrile] + CCCCCCCCn1cc[n+](COCCC)c1C.O=S(=O)([N-]S(=O)(=O)C(F)(F)F)C(F)(F)F, the activity coefficient reads like this: (323.15 K) 0.48 ± 0.04; (333.15 K) 0.46 ± 0.04; (343.15 K) 0.47 ± 0.04.

Turning to `CC1CCCC1` [methylcyclopentane] + CCCOC[n+]1ccc(N(C)C)cc1.O=S(=O)([N-]S(=O)(=O)C(F)(F)F)C(F)(F)F, the activity coefficient is, setting by setting: (323.15 K) 7.35 ± 0.5; (333.15 K) 7.22 ± 0.49; (343.15 K) 6.1 ± 0.42.

For `C1COCCO1` [1,4-dioxane] + CCCOC[n+]1ccn(Cc2ccccc2)c1.O=S(=O)([N-]S(=O)(=O)C(F)(F)F)C(F)(F)F, the activity coefficient (323.15 K) was 0.4 ± 0.03, the activity coefficient (333.15 K) stood at 0.36 ± 0.03 and the activity coefficient (343.15 K) worked out at 0.35 ± 0.03.

For `c1ccccc1` [benzene] + CCCOC[n+]1ccn(C)c1.F[B-](F)(F)F, the activity coefficient is 3.51 ± 0.24 (323.15 K), 3.45 ± 0.23 (333.15 K) and 3.46 ± 0.24 (343.15 K).

With `Cc1ccccc1C` [1,2-dimethylbenzene] + CCCOC[n+]1ccn(Cc2ccccc2)c1.N#C[N-]C#N, the activity coefficient is, setting by setting: (323.15 K) 3.05 ± 0.21; (333.15 K) 3.03 ± 0.21; (343.15 K) 3.01 ± 0.2.

`C1CCCCC1` [cyclohexane] + CCCOC[n+]1ccn(C)c1.F[B-](F)(F)F: the activity coefficient is, setting by setting: (323.15 K) 46.7 ± 3.2; (333.15 K) 40.6 ± 2.8; (343.15 K) 36.4 ± 2.5.

`c1ccsc1` [thiophene] + CCCOC[n+]1ccn(C)c1.O=S(=O)([N-]S(=O)(=O)C(F)(F)F)C(F)(F)F: the activity coefficient turned out to be 1.06 ± 0.07 (323.15 K), 1.05 ± 0.07 (333.15 K) and 1.04 ± 0.07 (343.15 K).

As to `Cc1ccc(C)cc1` [1,4-dimethylbenzene] + CCCCCCCCn1cc[n+](COCCC)c1C.O=S(=O)([N-]S(=O)(=O)C(F)(F)F)C(F)(F)F, the activity coefficient was 1.02 ± 0.06 (323.15 K), 1.01 ± 0.06 (333.15 K) and 1 ± 0.06 (343.15 K).

Consider `CCC(C)=O` [butanone] + CCCOC[n+]1ccn(Cc2ccccc2)c1.O=S(=O)([N-]S(=O)(=O)C(F)(F)F)C(F)(F)F, for which the activity coefficient (323.15 K) amounted to 0.32 ± 0.03, the activity coefficient (333.15 K) is 0.26 ± 0.03 and the activity coefficient (343.15 K) was 0.22 ± 0.03.

Regarding `CCC(C)=O` [butanone] + Cn1cc[n+](COCCCOC[n+]2ccn(C)c2)c1.O=S(=O)([N-]S(=O)(=O)C(F)(F)F)C(F)(F)F.O=S(=O)([N-]S(=O)(=O)C(F)(F)F)C(F)(F)F, the activity coefficient reads like this: (323.15 K) 0.36 ± 0.03; (333.15 K) 0.34 ± 0.03; (343.15 K) 0.32 ± 0.03.

With `CC#N` [acetonitrile] + CCCOC[n+]1ccc(N(C)C)cc1.O=S(=O)([N-]S(=O)(=O)C(F)(F)F)C(F)(F)F, the activity coefficient is, setting by setting: (323.15 K) 0.51 ± 0.04; (333.15 K) 0.52 ± 0.04; (343.15 K) 0.52 ± 0.04.

In the case of `CCCCCCCC` [octane] + CCCOC[n+]1ccn(Cc2ccccc2)c1.O=S(=O)([N-]S(=O)(=O)C(F)(F)F)C(F)(F)F, the activity coefficient reads like this: (323.15 K) 16.1 ± 1.1; (333.15 K) 12.9 ± 0.88; (343.15 K) 12.5 ± 0.85.

Regarding `c1ccccc1` [benzene] + CCCOC[n+]1ccn(C)c1.N#C[N-]C#N, the activity coefficient reads like this: (323.15 K) 2.25 ± 0.15; (333.15 K) 2.27 ± 0.15; (343.15 K) 2.29 ± 0.16.

`ClCCl` [dichloromethane] + CCCOC[n+]1ccc(N(C)C)cc1.O=S(=O)([N-]S(=O)(=O)C(F)(F)F)C(F)(F)F: the activity coefficient reads like this: (323.15 K) 0.57 ± 0.04; (333.15 K) 0.62 ± 0.04; (343.15 K) 0.63 ± 0.04.

For the compound `c1ccccc1` [benzene] + Cn1cc[n+](COCCCOC[n+]2ccn(C)c2)c1.O=S(=O)([N-]S(=O)(=O)C(F)(F)F)C(F)(F)F.O=S(=O)([N-]S(=O)(=O)C(F)(F)F)C(F)(F)F, the activity coefficient by setting is: (323.15 K) 0.94 ± 0.06; (333.15 K) 0.94 ± 0.06; (343.15 K) 0.9 ± 0.06.

As for `CCO` [ethanol] + CCCCCCCCn1cc[n+](COCCC)c1C.N#C[N-]C#N, the activity coefficient is 0.39 ± 0.03 (323.15 K), 0.38 ± 0.03 (333.15 K) and 0.38 ± 0.03 (343.15 K).

As for `C#CCCCCC` [1-heptyne] + CCCOC[n+]1ccc(N(C)C)cc1.O=S(=O)([N-]S(=O)(=O)C(F)(F)F)C(F)(F)F, the activity coefficient was found to be 3.33 ± 0.23 (323.15 K), 3.35 ± 0.23 (333.15 K) and 3.34 ± 0.23 (343.15 K).

With `c1ccsc1` [thiophene] + CCCOC[n+]1ccn(C)c1.N#C[N-]C#N, the activity coefficient worked out at 1.41 ± 0.09 (323.15 K), 1.45 ± 0.1 (333.15 K) and 1.5 ± 0.1 (343.15 K).

As to `C1CCCCC1` [cyclohexane] + CCCOC[n+]1ccc(N(C)C)cc1.O=S(=O)([N-]S(=O)(=O)C(F)(F)F)C(F)(F)F, the activity coefficient (323.15 K) worked out at 7.06 ± 0.48, the activity coefficient (333.15 K) came out at 6.83 ± 0.47 and the activity coefficient (343.15 K) worked out at 6.37 ± 0.43.

On to `C1CCCCCC1` [cycloheptane] + CCCOC[n+]1ccn(C)c1.N#C[N-]C#N, for which the activity coefficient by setting is: (323.15 K) 79.2 ± 5.4; (333.15 K) 105 ± 7.2; (343.15 K) 133 ± 9.1.

Consider `C=CCCCC` [hex-1-ene] + CCCOC[n+]1ccc(N(C)C)cc1.O=S(=O)([N-]S(=O)(=O)C(F)(F)F)C(F)(F)F, for which the activity coefficient (323.15 K) came to 6.62 ± 0.45, the activity coefficient (333.15 K) came to 6.79 ± 0.46 and the activity coefficient (343.15 K) amounted to 5.24 ± 0.36.

Take `CCCCCCCCC` [nonane] + CCCOC[n+]1ccn(Cc2ccccc2)c1.N#C[N-]C#N: the activity coefficient is, setting by setting: (323.15 K) 110 ± 7.6; (333.15 K) 93.6 ± 6.4; (343.15 K) 76.2 ± 5.2.

For the compound `CCCCCCCCCCCC` [dodecane] + CN(C)c1cc[n+](COCCCOC[n+]2ccc(N(C)C)cc2)cc1.O=S(=O)([N-]S(=O)(=O)C(F)(F)F)C(F)(F)F.O=S(=O)([N-]S(=O)(=O)C(F)(F)F)C(F)(F)F, the activity coefficient (323.15 K) amounted to 156 ± 11, the activity coefficient (333.15 K) was 137 ± 9.4 and the activity coefficient (343.15 K) is 124 ± 8.5.

Consider `CCCO` [propan-1-ol] + Cn1cc[n+](COCCCOC[n+]2ccn(C)c2)c1.N#C[N-]C#N.N#C[N-]C#N, for which the activity coefficient is 1.22 ± 0.08 (323.15 K), 1.17 ± 0.07 (333.15 K) and 1.1 ± 0.07 (343.15 K).

For the compound `CCCCO` [butan-1-ol] + Cn1cc[n+](COCCCOC[n+]2ccn(C)c2)c1.N#C[N-]C#N.N#C[N-]C#N, the activity coefficient came to 2.21 ± 0.15 (323.15 K), 1.9 ± 0.13 (333.15 K) and 1.79 ± 0.12 (343.15 K).

Consider `CC(C)O` [propan-2-ol] + Cn1cc[n+](COCCCOC[n+]2ccn(C)c2)c1.N#C[N-]C#N.N#C[N-]C#N, for which the activity coefficient runs as follows: (323.15 K) 1.39 ± 0.09; (333.15 K) 1.32 ± 0.09; (343.15 K) 1.26 ± 0.08.

With `CCC(C)=O` [butanone] + CCCOC[n+]1ccn(Cc2ccccc2)c1.N#C[N-]C#N, the activity coefficient reads like this: (323.15 K) 0.9 ± 0.06; (333.15 K) 0.87 ± 0.06; (343.15 K) 0.81 ± 0.05.

With `CO` [methanol] + CCCCCCCCn1cc[n+](COCCCOC[n+]2ccn(CCCCCCCC)c2C)c1C.O=S(=O)([N-]S(=O)(=O)C(F)(F)F)C(F)(F)F.O=S(=O)([N-]S(=O)(=O)C(F)(F)F)C(F)(F)F, the activity coefficient (323.15 K) was found to be 0.57 ± 0.04, the activity coefficient (333.15 K) was 0.51 ± 0.04 and the activity coefficient (343.15 K) turned out to be 0.49 ± 0.04.

As for `CCc1ccccc1` [ethylbenzene] + N#C[N-]C#N.N#C[N-]C#N.c1ccc(Cn2cc[n+](COCCCOC[n+]3ccn(Cc4ccccc4)c3)c2)cc1, the activity coefficient reads like this: (323.15 K) 8.33 ± 0.57; (333.15 K) 8.08 ± 0.55; (343.15 K) 7.78 ± 0.53.

With `CCCCCCCCCCC` [undecane] + CCCOC[n+]1ccn(Cc2ccccc2)c1.O=S(=O)([N-]S(=O)(=O)C(F)(F)F)C(F)(F)F, the activity coefficient reads like this: (323.15 K) 41.6 ± 2.9; (333.15 K) 31 ± 2.1; (343.15 K) 27.7 ± 1.9.

These data come from the NIST ThermoML archive (doi:10.1016/j.fluid.2014.11.020).
